Measurements as given in ChEMBL document CHEMBL5726468, “Heterocyclic compounds and methods of use thereof” (2019).
Where “and” joins values, the source holds several entries; their conditions need not be identical. Equal entries are not always repeated.

Assay: Huh 7.5.1 ATPlite assay : This example demonstrates the EC50 and CC50 values against HCV according to the HCVcc-RLuc reporter assay described in Example 5 and the cytotoxicity using the Huh 7.5.1 ATPlite assay for compounds in accordance with an embodiment of the invention.
Settings: not given

With `CC1OC(c2c(Cl)cccc2Br)=NC1CN1CCC(C(=O)NCCCN2C[C@H](C)C[C@H](C)C2)CC1` (stereo partly drawn) the EC50 was 178 nM and 386 nM.

Same assay, conditions: Huh-7.5.1

In order of rising EC50:
1. CC1OC(c2ccc(Cl)c(Cl)c2)=NC1CN1CCC(C(=O)NCCCN2C[C@H](C)C[C@H](C)C2)CC1 (stereo partly drawn)  13 nM
2. Cc1cccc(Cl)c1C1=NC(CN2CCC(C(=O)NCCCN3C[C@H](C)C[C@H](C)C3)CC2)C(C)O1 (stereo partly drawn)  14 nM
3. Cc1cc(C)cc(C2=NC(CN3CCC(C(=O)NCCCN4C[C@H](C)C[C@H](C)C4)CC3)C(C)O2)c1 (stereo partly drawn)  36 nM
4. Cc1ccccc1-c1nc(CN2CCC(C(=O)NCCCN3C[C@H](C)C[C@H](C)C3)CC2)c(C)s1  38 nM
5. Cc1cc(-c2nc(CN3CCC(C(=O)NCCCN4C[C@H](C)C[C@H](C)C4)CC3)co2)ccc1F  38 nM
6. CC1OC(c2ccc(F)cc2)=NC1CN1CCC(C(=O)NCCCN2C[C@H](C)C[C@H](C)C2)CC1 (stereo partly drawn)  53 nM
7. CC1OC(c2ccccc2Cl)=NC1CN1CCC(C(=O)NCCCN2C[C@H](C)C[C@H](C)C2)CC1 (stereo partly drawn)  86 nM
8. Cc1ccc(C2=NC(CN3CCC(C(=O)NCCCN4C[C@H](C)C[C@H](C)C4)CC3)C(C)O2)cc1C (stereo partly drawn)  98 nM
9. Cc1ccc(C2=NC(CN3CCC(C(=O)NCCCN4C[C@H](C)C[C@H](C)C4)CC3)C(C)O2)cc1 (stereo partly drawn)  100 nM
10. CC1OC(c2ccc(Cl)cc2)=NC1CN1CCC(C(=O)NCCCN2C[C@H](C)C[C@H](C)C2)CC1 (stereo partly drawn)  110 nM
11. CCc1ccccc1C1=NC(CN2CCC(C(=O)NCCCN3C[C@H](C)C[C@H](C)C3)CC2)C(C)O1 (stereo partly drawn)  140 nM
12. C[C@@H]1C[C@H](C)CN(CCCNC(=O)C2CCN(Cc3oc(-c4cc(C(F)(F)F)cc(C(F)(F)F)c4)nc3C(F)(F)F)CC2)C1  153 nM
13. Cc1cc(C)c(C2=NC(CN3CCC(C(=O)NCCCN4C[C@H](C)C[C@H](C)C4)CC3)C(C)O2)c(C)c1 (stereo partly drawn)  190 nM
14. COc1cccc(Br)c1C1=NC(CN2CCC(C(=O)NCCCN3C[C@H](C)C[C@H](C)C3)CC2)C(C)O1 (stereo partly drawn)  213 nM
15. Cc1cccc(Cl)c1C1=NC(CN2CCC(C(=O)NCCCN3CCC(C)(C)CC3)CC2)C(C)O1 (stereo not drawn)  220 nM
16. CC1OC(c2c(Cl)cccc2Cl)=NC1CN1CCC(C(=O)NCCCN2C[C@H](C)C[C@H](C)C2)CC1 (stereo partly drawn)  221 nM
17. Cc1ccccc1-c1nc(CN2CCC[C@@H](C(=O)NCCCN3C[C@H](C)C[C@H](C)C3)C2)c(C)o1  304 nM
18. CC1OC(c2c(F)cccc2Cl)=NC1CN1CCC(C(=O)NCCCN2C[C@H](C)C[C@H](C)C2)CC1 (stereo partly drawn)  334 nM
19. CC1CCCN(CCCNC(=O)C2CCN(Cc3oc(-c4cc(C(F)(F)F)cc(C(F)(F)F)c4)nc3C(F)(F)F)CC2)C1 (stereo not drawn)  341 nM
20. Cc1ccccc1C1=NC(CN2CCC(C(=O)NCCCN3CCC(C)CC3)CC2)C(C)O1 (stereo not drawn)  400 nM
21. Cc1ccccc1-c1nc(CC2CCC[C@@H](C(=O)CCCCN3C[C@H](C)C[C@H](C)C3)C2)c(C)o1 (stereo partly drawn)  410 nM
22. COc1cccc(F)c1C1=NC(CN2CCC(C(=O)NCCCN3C[C@H](C)C[C@H](C)C3)CC2)C(C)O1 (stereo partly drawn)  455 nM
23. CC1OC(c2c(F)cccc2F)=NC1CN1CCC(C(=O)NCCCN2C[C@H](C)C[C@H](C)C2)CC1 (stereo partly drawn)  624 nM
24. COc1cc(OC)cc(C2=NC(CN3CCC(C(=O)NCCCN4CC(C)CC(C)C4)CC3)C(C)O2)c1 (stereo not drawn)  680 nM
25. Cc1ccccc1C1=NC(CN2CCC(C(=O)NCCN3CCCCC3)CC2)C(C)O1 (stereo not drawn)  1200 nM
26. Cc1ccccc1C1=NC(CN2CCC(C(=O)N3CCN(CCN(C)C)CC3)CC2)C(C)O1 (stereo not drawn)  6100 nM
27. CCN(CC)CCCCNC(=O)C1CCN(CC2N=C(c3cc(OC)cc(OC)c3)OC2C)CC1 (stereo not drawn)  6550 nM
